The SangsterLogP compilation

Row | SMILES | logP
1 | Clc1ccc(Oc2cc(Cl)ccc2Cl)c(Cl)c1 | 5.78
2 | Clc1ccc(Oc2ccccc2Cl)cc1 | 5.03
3 | Clc1ccc(Oc2cccc(Cl)c2Cl)c(Cl)c1 | 5.88
4 | Clc1ccc(Oc2cc(Cl)cc(Cl)c2Cl)cc1 | 6.21
5 | Clc1ccc(Oc2ccccc2Cl)c(Cl)c1 | 4.96
6 | Clc1ccc(Oc2ccc(Cl)cc2Cl)c(Cl)c1 | 5.95
7 | Clc1cc(Cl)c(Oc2ccc(Cl)c(Cl)c2)c(Cl)c1 | 6.44
8 | Clc1ccc(Oc2cc(Cl)ccc2Cl)cc1 | 5.66
9 | Clc1ccc(Cl)c(Oc2ccc(Cl)c(Cl)c2)c1 | 6.11
10 | Clc1ccc(Oc2cc(Cl)cc(Cl)c2)cc1 | 5.77
11 | Clc1ccc(Cl)c(Oc2ccccc2)c1 | 5.13
12 | Clc1cccc(Cl)c1Oc1ccccc1 | 4.64
13 | Clc1cc(Cl)c(Oc2c(Cl)cccc2Cl)cc1Cl | 5.98
14 | Clc1ccc(Oc2cc(Cl)c(Cl)cc2Cl)cc1Cl | 6.6
15 | Clc1ccc(Cl)c(Oc2ccccc2)c1Cl | 5.35
16 | Clc1ccc(Oc2cccc(Cl)c2Cl)cc1Cl | 5.99
17 | Clc1ccc(Oc2ccc(Cl)c(Cl)c2)c(Cl)c1 | 6.13
18 | Clc1cc(Oc2ccccc2)cc(Cl)c1Cl | 5.7
19 | Clc1ccc(Oc2cc(Cl)c(Cl)cc2Cl)c(Cl)c1 | 6.38
20 | Clc1ccc(Oc2c(Cl)cccc2Cl)cc1 | 5.3
21 | Clc1ccc(Oc2c(Cl)ccc(Cl)c2Cl)c(Cl)c1 | 6.06

Row | SMILES | logP
22 | Clc1ccc(Oc2cccc(Cl)c2Cl)cc1 | 5.63
23 | Clc1ccc(Oc2c(Cl)ccc(Cl)c2Cl)cc1 | 5.88
24 | Clc1ccc(Oc2cc(Cl)c(Cl)c(Cl)c2)c(Cl)c1 | 6.63
25 | Clc1ccccc1Oc1ccccc1 | 4.45
26 | Clc1ccc(Oc2ccccc2)cc1 | 4.7
27 | Clc1ccccc1Oc1ccc(Cl)c(Cl)c1Cl | 5.72
28 | Clc1ccc(Oc2c(Cl)cccc2Cl)cc1Cl | 5.7
29 | Clc1ccc(Oc2c(Cl)ccc(Cl)c2Cl)cc1Cl | 6.31
30 | Clc1cc(Cl)cc(Oc2cc(Cl)c(Cl)cc2Cl)c1 | 6.66
31 | Clc1ccc(Oc2ccc(Cl)c(Cl)c2)cc1Cl | 6.36
32 | Clc1ccc(Oc2cc(Cl)c(Cl)cc2Cl)cc1 | 5.99
33 | Clc1cc(Cl)c(Oc2cc(Cl)c(Cl)cc2Cl)cc1Cl | 6.72
34 | Clc1cccc(Oc2cc(Cl)c(Cl)cc2Cl)c1 | 6.14
35 | Clc1ccc(Oc2ccc(Cl)cc2Cl)cc1 | 5.53
36 | Clc1ccc(Oc2ccccc2)c(Cl)c1 | 4.93
37 | Clc1cccc(Oc2ccccc2)c1 | 4.75
38 | Clc1cc(Cl)c(Cl)c(Oc2ccccc2)c1 | 5.62
39 | Clc1ccc(Oc2ccc(Cl)cc2)cc1 | 5.25
40 | Clc1cccc(Oc2ccc(Cl)c(Cl)c2)c1 | 5.74
41 | Clc1cc(Cl)cc(Oc2ccc(Cl)cc2Cl)c1 | 6.13
42 | Clc1cc(Cl)cc(Oc2ccccc2)c1 | 5.21

Row | SMILES | logP
43 | Clc1cc(Cl)c(Cl)c(Oc2ccc(Cl)c(Cl)c2)c1 | 6.52
44 | Clc1ccc(Cl)c(Oc2cc(Cl)c(Cl)cc2Cl)c1 | 6.22
45 | Clc1ccc(Oc2ccccc2Cl)cc1Cl | 5.5
46 | Clc1ccc(Oc2cccc(Cl)c2)cc1 | 5.13
47 | Clc1ccc(Oc2ccccc2)cc1Cl | 4.99
48 | Clc1ccc(Oc2c(Cl)cc(Cl)cc2Cl)c(Cl)c1 | 6.11
49 | Clc1cc(Cl)c(Oc2ccccc2Cl)cc1Cl | 5.97
50 | Clc1ccc(Oc2ccc(Cl)c(Cl)c2Cl)cc1 | 6.14
51 | Clc1cc(Cl)cc(Oc2ccc(Cl)c(Cl)c2)c1 | 6.22
52 | Clc1ccc(Oc2ccccc2)c(Cl)c1Cl | 5.55
53 | Clc1ccc(Oc2cc(Cl)c(Cl)c(Cl)c2)cc1Cl | 6.83
54 | Clc1cc(Cl)c(Oc2ccccc2)c(Cl)c1 | 5.32
55 | Clc1cccc(Oc2ccc(Cl)cc2Cl)c1 | 5.65
56 | Clc1ccc(Oc2c(Cl)cc(Cl)cc2Cl)cc1 | 5.92
57 | Clc1cc(Cl)c(Cl)c(Oc2ccccc2)c1Cl | 5.82
58 | Clc1cccc(Oc2ccc(Cl)c(Cl)c2Cl)c1 | 6.07
59 | Clc1cccc(Oc2ccccc2)c1Cl | 5
60 | Clc1ccc(Oc2ccc(Cl)c(Cl)c2)cc1 | 5.88
61 | Clc1ccc(Oc2cc(Cl)c(Cl)c(Cl)c2)cc1 | 6.3

Other lines, results leading:

Row | logP | SMILES
62 | 7.31 | Clc1cc(Cl)c(Oc2cc(Cl)c(Cl)c(Cl)c2Cl)c(Cl)c1
63 | 6.78 | Clc1ccc(Oc2c(Cl)c(Cl)cc(Cl)c2Cl)cc1Cl
64 | 7.28 | Clc1ccc(Oc2cc(Cl)c(Cl)c(Cl)c2Cl)c(Cl)c1Cl
65 | 6.58 | Clc1cc(Cl)cc(Oc2ccc(Cl)c(Cl)c2Cl)c1
66 | 7.81 | Clc1cc(Cl)c(Oc2c(Cl)c(Cl)c(Cl)c(Cl)c2Cl)cc1Cl
67 | 6.76 | Clc1ccc(Oc2c(Cl)c(Cl)cc(Cl)c2Cl)c(Cl)c1
68 | 6.82 | Clc1ccc(Oc2ccc(Cl)c(Cl)c2Cl)c(Cl)c1Cl
69 | 7.14 | Clc1ccc(Oc2c(Cl)c(Cl)cc(Cl)c2Cl)c(Cl)c1Cl
70 | 7.84 | Clc1ccc(Oc2c(Cl)c(Cl)c(Cl)c(Cl)c2Cl)c(Cl)c1Cl
71 | 6.65 | Clc1ccc(Oc2c(Cl)ccc(Cl)c2Cl)c(Cl)c1Cl
72 | 6.41 | Clc1ccc(Oc2c(Cl)c(Cl)cc(Cl)c2Cl)cc1
73 | 7.63 | Clc1cc(Oc2c(Cl)c(Cl)cc(Cl)c2Cl)c(Cl)c(Cl)c1Cl
74 | 6.76 | Clc1cc(Cl)c(Cl)c(Oc2cc(Cl)c(Cl)cc2Cl)c1
75 | 7.13 | Clc1cc(Cl)c(Oc2c(Cl)c(Cl)cc(Cl)c2Cl)cc1Cl
76 | 6.72 | Clc1ccc(Oc2cc(Cl)c(Cl)c(Cl)c2Cl)c(Cl)c1
77 | 8.07 | Clc1cc(Oc2c(Cl)c(Cl)c(Cl)c(Cl)c2Cl)c(Cl)c(Cl)c1Cl
78 | 6.51 | Clc1ccc(Cl)c(Oc2ccc(Cl)c(Cl)c2Cl)c1
79 | 7.55 | Clc1cc(Oc2cc(Cl)c(Cl)c(Cl)c2Cl)cc(Cl)c1Cl
80 | 7.01 | Clc1cc(Cl)c(Oc2ccc(Cl)c(Cl)c2Cl)cc1Cl
81 | 7.01 | Clc1cc(Cl)c(Cl)c(Oc2ccc(Cl)c(Cl)c2Cl)c1

Row | logP | SMILES
82 | 7.46 | Clc1cc(Cl)c(Oc2cc(Cl)c(Cl)c(Cl)c2Cl)cc1Cl
83 | 7.31 | Clc1ccc(Oc2c(Cl)c(Cl)c(Cl)c(Cl)c2Cl)cc1Cl
84 | 6.47 | Clc1ccc(Oc2c(Cl)cc(Cl)c(Cl)c2Cl)cc1
85 | 7.07 | Clc1ccc(Oc2c(Cl)cc(Cl)c(Cl)c2Cl)cc1Cl
86 | 6.99 | Clc1cc(Oc2ccc(Cl)c(Cl)c2Cl)cc(Cl)c1Cl
87 | 6.3 | Clc1cccc(Oc2ccc(Cl)c(Cl)c2Cl)c1Cl
88 | 6.51 | Clc1ccc(Oc2ccc(Cl)c(Cl)c2Cl)cc1Cl
89 | 7.11 | Clc1cc(Cl)c(Oc2cc(Cl)c(Cl)c(Cl)c2)cc1Cl
90 | 6.98 | Clc1cc(Oc2c(Cl)ccc(Cl)c2Cl)c(Cl)c(Cl)c1Cl
91 | 6.49 | Clc1cc(Cl)c(Oc2cc(Cl)c(Cl)cc2Cl)c(Cl)c1
92 | 6.11 | Clc1ccc(Oc2c(Cl)cccc2Cl)c(Cl)c1Cl
93 | 7.78 | Clc1cc(Oc2cc(Cl)c(Cl)c(Cl)c2Cl)c(Cl)c(Cl)c1Cl
94 | 6.95 | Clc1ccc(Oc2c(Cl)c(Cl)c(Cl)c(Cl)c2Cl)cc1
95 | 6.28 | Clc1ccc(Oc2ccc(Cl)c(Cl)c2Cl)c(Cl)c1
96 | 6.61 | Clc1ccc(Oc2cc(Cl)c(Cl)c(Cl)c2Cl)cc1
97 | 6.84 | Clc1ccc(Oc2c(Cl)cc(Cl)c(Cl)c2Cl)c(Cl)c1
98 | 8.16 | Clc1c(Cl)c(Cl)c(Oc2c(Cl)c(Cl)c(Cl)c(Cl)c2Cl)c(Cl)c1Cl
99 | 6.47 | Clc1cc(Cl)c(Oc2c(Cl)ccc(Cl)c2Cl)cc1Cl
100 | 6.22 | Clc1cc(Cl)c(Oc2cccc(Cl)c2Cl)cc1Cl
